Results from PMC10793205, “Differential transmetallation of complexes of the anti-cancer thiosemicarbazone, Dp4e4mT: effects on anti-proliferative efficacy, redox activity, oxy-myoglobin and oxy-hemoglobin oxidation” (Chemical Science, 2023).
Entries after “also recorded” stand apart in the source; their conditions may differ.

Tests used:
oxy-Mb = target: T1, oxy-Mb (Homo sapiens, UniProt P02144); assay: Oxidation of purified oxy-Mb to met-Mb (UV-vis); type: biochemical; conditions: 10 μM agent, oxy-Mb 40 μM; for oxy-Mb oxidation (met-Mb generation): 3 h incubation, 20 °C; for oxy-Mb oxidation (in words): 1–3 h/20 °C
T1 sequence (P02144 1-154): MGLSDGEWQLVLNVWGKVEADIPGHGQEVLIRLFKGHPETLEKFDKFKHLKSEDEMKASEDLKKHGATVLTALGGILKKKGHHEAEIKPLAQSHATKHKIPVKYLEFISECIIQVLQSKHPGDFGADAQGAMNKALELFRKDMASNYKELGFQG
Text: As such, it was important to examine the effect of the Dp4e4mT complexes on oxy-Hb and oxy-Mb oxidation (Fig. 6 and 7). Comparisons were made to three controls, namely DFO, Dp44mT, and DpC, as well as their Fe(III) complexes. […] In contrast, the Fe(III) complexes of Dp44mT and DpC were positive controls, as they induce oxidation of oxy-Mb.[28,39,42]
Fig. 6 (A and B) Investigation of the effects of Dp4e4mT and its Fe(III), Co(III), Ni(II), Cu(II), Zn(II), Ga(III), and Pd(II) complexes versus the positive controls DFO, Dp44mT, DpC and their Fe(III) complexes (10 μM) on met-Mb generation (% zero time) after an incubation of 1–3 h/20 °C with purified oxy-Mb (40 μM). Results are mean ± SD (3 experiments).
Spectroscopic Examination of Met-Mb and Met-Hb Formation from Oxy-Mb and Oxy- […]
Oxy-Mb and oxy-Hb solutions were prepared following established protocols.8, 17 In brief, solutions of reduced Mb and Hb in PBS (pH 7.2) were prepared by adding 1.2 mL of Na2S2O4 (12 mM) to 38 mL of met-Mb and met-Hb solution (40 μM). 17 Subsequently, oxy-Mb and oxy-Hb were generated by gently passing 150 mL of oxygen (from an air-filled syringe) through the solution containing reduced Mb and Hb, effectively eliminating any residual Na2S2O4. Following this, the oxy-Mb and oxy-Hb solutions were passed through a PD-10 column prepacked with 8.3 mL of Sephadex G-25 and equilibrated with PBS (pH 7.2). 17 In experiments examining the activity of the agents, all complexes were dissolved in 1,2-propanediol, then diluted to 10 µM in PBS (pH 7.2). The experiments were conducted over incubations of 0 to 3 h with the agents. UV-Vis spectra covering the range of 300 to 700 nm were recorded at a temperature of 20°C using a Shimadzu UV−Vis spectrophotometer (UV-1800; Shimadzu, Kyoto, Japan). Concentrations of met-Mb and met-Hb, as well as reduced-Mb and reduced-Hb, were determined at 409 nm and 435 nm, respectively. Concentrations of oxy-Mb and oxy-Hb were determined at 544 nm and 582 nm, respectively. 17

[1] = Transmetallation kinetics with FeCl3 in DMSO (time-resolved UV-vis); type: physicochemical; conditions: for Observed pseudo first order rate constant kobs, FeCl3: 10-fold excess of FeCl3 in DMSO, 25 °C; for t½, transmetallation with FeCl3: FeCl3 in DMSO
Experimental: The capacity of the Fe(III), Ni(II), Co(III), Zn(II), Ga(III), and Pd(II) complexes of Dp4e4mT to transmetallate with Cu(II) and/or Fe(III) to result in redox active Cu(II) and Fe(III) complexes could be critical in understanding their anti-proliferative efficacy, redox activity, and ability to oxidize oxy-Mb and oxy-Hb. To examine this, LC-MS spectrometry was performed in DMSO after the addition of 1 equivalent of FeCl3 or Cu(OAc)2 and the solutions then incubated for 24 h/20 °C due to slow reaction kinetics. This solution was then diluted 1 : 1 in methanol and LC-MS performed using a mobile phase consisting of 90% MeOH, 9.9% water, and 0.1% formic acid (Fig. S2–S9 ^†). These investigations were supported by EPR studies in DMSO after the addition of 1 equivalent of FeCl3 or Cu(OAc)2 incubated under the same conditions (Fig. 3A–G). As a third method to investigate transmetallation, kinetic studies using time-resolved UV-vis spectroscopy were performed under pseudo-first order conditions with a 10-fold excess of FeCl3 or Cu(OAc)2 in DMSO (Fig. S11–S16 ^†). The pseudo-first order rate constants were calculated from the time-dependent UV-vis spectroscopy data (at all wavelengths) with Reactlab Kinetics[49] and collected in Table S2. ^† […]
Time-dependent UV-Vis absorption spectra were measured on an Agilent 8453 diode array UV−Vis spectrophotometer, equipped with a thermostatted (± 0.1 °C) multicell transport cooled by a Huber Ministat 230 recirculating cooling bath. Spectral analysis was carried out with Reactlab Kinetics. 10 […]
Table S2. Observed pseudo first order rate constants (k obs, s−1) for reactions of each Dp4e4mT complex with a 10-fold excess of Cu(OAc) 2 or FeCl 3 in DMSO or water (pH 7.4 or 5.0) at 25 °C. […]
[Co(Dp4e4mT)2]+ No reaction No reaction No reaction No reaction […]
a Reaction could not be deciphered by UV-Vis spectroscopy; bchlorido ligand hydrolysis

[2] = Cyclic voltammetry (redox potentials); type: physicochemical; conditions: 1 mM in MeCN/H2O 7 : 3 (v/v) + 0.1 M Et4NClO4, sweep rate 100 mV s^−1
Text: The redox potentials of Fe(III)- and Cu(II)-thiosemicarbazone complexes have been extensively studied and are important for understanding intracellular redox activity and ROS generation.[23,27,28,42] Considering this, the electrochemical properties of [Fe(Dp44mT)2]^+, [Fe(DpC)2]^+, [Fe(Dp4e4mT)2]^+, [Co(Dp4e4mT)2]^+, [Ni(Dp4e4mT)2], [Cu(Dp4e4mT)Cl], [Ga(Dp4e4mT)2]^+, and [Pd(Dp4e4mT)Cl] were investigated with cyclic voltammetry in MeCN : H2O (70 : 30 v/v; Fig. 4A and B). This solvent system was implemented to provide sufficient solubility and because it has been used by our laboratories previously to measure potentials of thiosemicarbazone complexes enabling effective comparison.[28,45,57–59]
Fig. 4 Cyclic voltammograms of: (A) [Fe(Dp44mT)2]^+, [Fe(DpC)2]^+, and [Fe(Dp4e4mT)2]^+. (B) [Co(Dp4e4mT)2]^+, [Ni(Dp4e4mT)2], [Cu(Dp4e4mT)Cl], [Ga(Dp4e4mT)2]^+, and [Pd(Dp4e4mT)Cl] (1 mM in MeCN/H2O 7 : 3 (v/v) + 0.1 M Et4NClO4) at a sweep rate of 100 mV s^−1. The voltammograms were recorded using a glassy carbon working electrode versus a […] (NHE). […]
Cyclic voltammograms were acquired for the Fe(III), Co(III), Ni(II), Cu(II), Ga(III), and Pd(II) complexes of Dp4e4mT utilizing a BAS100B/W potentiostat, equipped with an aqueous Ag/AgCl reference electrode, a glassy carbon working electrode, and a Pt wire auxiliary […]
electrode. […]

[3] = listed as Dp4e4mT Ga(III) complex
[4] = listed as Dp4e4mT Pd(II) complex

oxy-Mb oxidation (met-Mb generation) (oxy-Mb) | Redox potential (mV vs. NHE) [2] | SMILES | oxy-Mb oxidation (in words) (oxy-Mb) | Observed pseudo first order rate constant kobs, FeCl3 [1] | other results
140 % of the control | – | CCN(C)C(=S)NN=C(c1ccccn1)c1ccccn1 [Dp4e4mT, di-2-pyridylketone-4-ethyl-4-methyl-3-thiosemicarbazone] | – | – | –
129 % of the control | – | CN(C)C(=S)NN=C(c1ccccn1)c1ccccn1 [Dp44mT, di-2-pyridylketone 4,4-dimethyl-3-thiosemicarbazone, reference compound] | – | – | –
– | –642 mV vs. NHE | CCN(C)C([S-])=NN=C(c1ccccn1)c1ccccn1.CCN(C)C([S-])=NN=C(c1ccccn1)c1ccccn1.[Co+3] [[Co(Dp4e4mT)2]^+] | minimal impact | No reaction | oxy-Mb oxidation (in words) (oxy-Mb; listed as Dp4e4mT Co(III) complex): no appreciable oxidation of oxy-Mb
– | −151 mV vs. NHE | CCN(C)C([S-])=NN=C(c1ccccn1)c1ccccn1.[Cl-].[Cu+2] [[Cu(Dp4e4mT)Cl]] | did not significantly lead to oxidation of oxy-Mb | No reaction | Redox potential (mV vs. NHE) ([2]; listed as [Cu(Dp4e4mT)(Cl)]^±): –151 mV vs. NHE
213 % of the control | +70 mV vs. NHE | CCN(C)C([S-])=NN=C(c1ccccn1)c1ccccn1.CCN(C)C([S-])=NN=C(c1ccccn1)c1ccccn1.[Fe+3] [[Fe(Dp4e4mT)2]^+] | – | – | –
– | – | CCN(C)C([S-])=NN=C(c1ccccn1)c1ccccn1.CCN(C)C([S-])=NN=C(c1ccccn1)c1ccccn1.[Ga+3] [[Ga(Dp4e4mT)2]^+] | significantly increased oxy-Mb and oxy-Hb oxidation | – | oxy-Mb oxidation (in words) (oxy-Mb; [3]): induced marked oxy-Mb oxidation; t½, transmetallation with FeCl3 [1]: 3 to 4 h; Redox potential (mV vs. NHE) [2, 3]: −533 mV vs. NHE; Redox potential (mV vs. NHE) ([2]; listed as [Ga(Dp4e4mT)2]^+/0): –533 (irreversible) mV vs. NHE
– | +647 mV vs. NHE | CCN(C)C([S-])=NN=C(c1ccccn1)c1ccccn1.CCN(C)C([S-])=NN=C(c1ccccn1)c1ccccn1.[Ni+2] [[Ni(Dp4e4mT)2]] | low activity; also recorded: minimal impact | No reaction; also recorded: unreactive | extent of reaction with Fe(III) ([1]; DMSO, after 3 days): ~20%
– | –626 (irreversible) mV vs. NHE | CCN(C)C([S-])=NN=C(c1ccccn1)c1ccccn1.[Cl-].[Pd+2] [[Pd(Dp4e4mT)Cl]] | minimal impact | No reaction | oxy-Mb oxidation (in words) (oxy-Mb; [4]): no appreciable oxidation of oxy-Mb; Redox potential (mV vs. NHE) [2, 4]: −626 mV vs. NHE
– | – | CCN(C)C([S-])=NN=C(c1ccccn1)c1ccccn1.CCN(C)C([S-])=NN=C(c1ccccn1)c1ccccn1.[Zn+2] [[Zn(Dp4e4mT)2]] | significantly increased oxy-Mb and oxy-Hb oxidation | 0.00891 s⁻¹ | oxy-Mb oxidation (in words) (oxy-Mb; listed as Dp4e4mT Zn(II) complex): induced marked oxy-Mb oxidation; t½, transmetallation with FeCl3 [1]: ~0.017 h
